Data reported in article PMC5085999, “Structural Basis for Differences in Dynamics Induced by Leu Versus Ile Residues in the CD Loop of Kir Channels” (Molecular Neurobiology, 2015).
Numbering of substitutions follows the chain as printed.

Experiments:
Assay in all cases: inside-out macropatch dose-response of channel expressed in Xenopus oocytes
Assay type in all cases: cell-based
Kir2.1 [1] = target: T1, Kir2.1 (Mus musculus, UniProt P35561)
T1 construct: gene Kcnj2
T1 sequence (P35561 1-428): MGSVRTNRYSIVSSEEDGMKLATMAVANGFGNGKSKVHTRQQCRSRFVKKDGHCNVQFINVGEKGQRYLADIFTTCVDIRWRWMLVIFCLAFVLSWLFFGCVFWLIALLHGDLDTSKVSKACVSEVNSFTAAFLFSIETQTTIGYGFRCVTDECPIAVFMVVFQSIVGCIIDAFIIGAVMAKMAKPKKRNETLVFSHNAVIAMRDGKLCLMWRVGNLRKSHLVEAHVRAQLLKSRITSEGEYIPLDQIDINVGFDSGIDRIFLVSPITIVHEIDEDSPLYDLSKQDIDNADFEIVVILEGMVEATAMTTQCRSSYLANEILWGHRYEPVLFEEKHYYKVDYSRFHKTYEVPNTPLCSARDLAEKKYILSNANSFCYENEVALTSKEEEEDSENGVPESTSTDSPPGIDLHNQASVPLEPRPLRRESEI

Kir2.2 [2] = target: T2, Kir2.2 (Homo sapiens, UniProt Q14500)
T2 construct: gene KCNJ12
T2 sequence (Q14500 1-433): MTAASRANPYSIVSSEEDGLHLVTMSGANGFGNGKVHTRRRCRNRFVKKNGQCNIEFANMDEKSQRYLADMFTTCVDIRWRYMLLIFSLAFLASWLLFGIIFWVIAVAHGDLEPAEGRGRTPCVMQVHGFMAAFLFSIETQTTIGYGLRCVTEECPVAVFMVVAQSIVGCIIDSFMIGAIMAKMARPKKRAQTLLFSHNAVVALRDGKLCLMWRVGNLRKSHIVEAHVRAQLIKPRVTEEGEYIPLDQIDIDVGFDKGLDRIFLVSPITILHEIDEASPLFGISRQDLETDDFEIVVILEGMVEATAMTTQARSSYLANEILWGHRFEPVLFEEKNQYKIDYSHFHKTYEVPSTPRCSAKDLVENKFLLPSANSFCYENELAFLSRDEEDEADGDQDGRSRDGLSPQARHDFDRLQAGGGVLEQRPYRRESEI

Kir2.1 [3] = target: T3, Kir2.1 (Mus musculus, UniProt P35561, L222I)
T3 construct: gene Kcnj2
T3 sequence (P35561 1-428 L222I): T1 sequence (P35561 1-428) with L222I

Kir2.2 [4] = target: T4, Kir2.2 (Homo sapiens, UniProt Q14500, I223L)
T4 construct: gene KCNJ12
T4 sequence (Q14500 1-433 I223L): T2 sequence (Q14500 1-433) with I223L

- EC50 (Kir2.1 [1]): 2.89 ± 0.31 µM
- EC50 (Kir2.2 [2]): 6.14 ± 0.45 µM
- EC50 (Kir2.1 [3]): 14 ± 0.98 µM
- EC50 (Kir2.2 [4]): 1.9 ± 0.23 µM
Structure (SMILES): CCCCCCCC(=O)OC[C@H](COP(=O)(O)O[C@@H]1[C@H](O)[C@H](O)[C@@H](OP(=O)(O)O)[C@H](OP(=O)(O)O)[C@H]1O)OC(=O)CCCCCCC [diC8 PIP2]
